Reference: ChEMBL document CHEMBL1201862, “PubChem BioAssay data set” (2004)
The source made the active and inactive calls.

Columns and labels:
H4 = assay: Luminescence Cell-Based Dose Response HTS to Identify Activators of 5'UTR Stem-Loop Driven Prion Protein mRNA Translation in H4 Neuroglioblastoma Cells. [Related pubchem assays: 1829 (Project Summary), 1814 (Primary HTS)]; type: functional; conditions: Homo sapiens
[1] = Luminescence Cell-Based Dose Confirmation HTS to Identify Activators of 5'UTR Stem-Loop Driven Alpha-Synuclein mRNA Translation in H4 Neuroglioblastoma Cells. [Related pubchem assays: 1829 (Project Summary), 1814 (Primary HTS)]; type: functional
[2] = target: T1, Mitochondrial peptide methionine sulfoxide reductase (Bos taurus, UniProt P54149); type: functional;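 as to IC50: absorbance read-out, biochemical high-throughput dose-response screen for MsrA inhibitors, confirmatory; recombinant bovine MsrA coupled to E. coli TrxB with NADPH and selenocystamine; potency is for inhibitors of MsrA activity on DMSO substrate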
T1 sequence (P54149 whole entry): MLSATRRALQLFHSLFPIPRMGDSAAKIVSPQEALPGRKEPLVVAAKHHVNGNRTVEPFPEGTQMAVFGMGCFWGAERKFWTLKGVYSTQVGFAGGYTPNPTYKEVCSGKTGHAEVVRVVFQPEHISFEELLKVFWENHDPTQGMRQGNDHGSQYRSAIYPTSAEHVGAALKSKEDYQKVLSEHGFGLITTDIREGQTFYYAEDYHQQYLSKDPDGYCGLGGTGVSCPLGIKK

[3] = Luminescence Cell-Based Dose Response HTS to Identify Activators of Luciferase Translation or Activity in H4 […] Cells. [Related pubchem assays: 1829 (Project Summary), 1814 (Primary HTS)]; type: functional
Wee1-like protein kinase = Wee1-like protein kinase (Homo sapiens, UniProt P30291); assay: Dose Response Cell-based Assay for Inhibitors of Wee1 Degradation. [Related pubchem assays: 1410, 1321 ]; type: functional
Chain of Wee1-like protein kinase (P30291 whole entry): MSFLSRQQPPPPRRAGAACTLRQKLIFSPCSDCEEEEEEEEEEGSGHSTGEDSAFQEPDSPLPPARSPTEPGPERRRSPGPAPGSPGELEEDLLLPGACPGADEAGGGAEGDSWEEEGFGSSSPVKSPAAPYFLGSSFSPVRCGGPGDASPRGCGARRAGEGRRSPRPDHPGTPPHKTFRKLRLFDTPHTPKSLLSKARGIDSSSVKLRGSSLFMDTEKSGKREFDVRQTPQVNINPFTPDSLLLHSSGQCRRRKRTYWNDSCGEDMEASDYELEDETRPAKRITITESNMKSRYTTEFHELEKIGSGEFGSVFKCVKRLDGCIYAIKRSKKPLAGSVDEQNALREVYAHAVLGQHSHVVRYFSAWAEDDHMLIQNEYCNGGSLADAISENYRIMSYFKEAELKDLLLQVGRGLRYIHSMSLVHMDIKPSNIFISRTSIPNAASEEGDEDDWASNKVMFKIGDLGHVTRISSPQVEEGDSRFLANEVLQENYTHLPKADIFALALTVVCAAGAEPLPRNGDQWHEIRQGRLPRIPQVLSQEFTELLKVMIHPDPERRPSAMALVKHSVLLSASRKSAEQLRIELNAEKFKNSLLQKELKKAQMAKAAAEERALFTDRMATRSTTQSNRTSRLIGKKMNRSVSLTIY

[4] = target: G2/mitotic-specific cyclin-B1 (Homo sapiens, UniProt P14635); assay: Counterscreen assay for inhibitors of Wee1 degradation: dose response cell-based assay to identify inhibitors of cyclin B degradation. [Related pubchem assays: 1410, 1321 ]; type: functional
Chain of G2/mitotic-specific cyclin-B1 (P14635 whole entry): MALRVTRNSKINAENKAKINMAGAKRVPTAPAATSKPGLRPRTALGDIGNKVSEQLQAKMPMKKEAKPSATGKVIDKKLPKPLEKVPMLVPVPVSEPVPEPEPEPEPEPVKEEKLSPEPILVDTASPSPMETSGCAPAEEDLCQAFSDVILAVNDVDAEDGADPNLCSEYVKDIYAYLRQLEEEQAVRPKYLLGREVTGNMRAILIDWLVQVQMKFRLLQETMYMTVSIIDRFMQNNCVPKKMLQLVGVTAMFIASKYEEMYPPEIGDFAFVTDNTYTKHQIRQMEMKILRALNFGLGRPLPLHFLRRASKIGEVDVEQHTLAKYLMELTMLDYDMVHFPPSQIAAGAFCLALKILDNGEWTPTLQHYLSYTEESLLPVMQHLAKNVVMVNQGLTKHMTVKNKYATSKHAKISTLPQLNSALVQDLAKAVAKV

NS3 = NS3 (Hepatitis C virus, UniProt A3EZJ3); assay: PubChem AID 2173; design: species or system Hepacivirus hominis
Chain of NS3 (A3EZJ3 whole entry): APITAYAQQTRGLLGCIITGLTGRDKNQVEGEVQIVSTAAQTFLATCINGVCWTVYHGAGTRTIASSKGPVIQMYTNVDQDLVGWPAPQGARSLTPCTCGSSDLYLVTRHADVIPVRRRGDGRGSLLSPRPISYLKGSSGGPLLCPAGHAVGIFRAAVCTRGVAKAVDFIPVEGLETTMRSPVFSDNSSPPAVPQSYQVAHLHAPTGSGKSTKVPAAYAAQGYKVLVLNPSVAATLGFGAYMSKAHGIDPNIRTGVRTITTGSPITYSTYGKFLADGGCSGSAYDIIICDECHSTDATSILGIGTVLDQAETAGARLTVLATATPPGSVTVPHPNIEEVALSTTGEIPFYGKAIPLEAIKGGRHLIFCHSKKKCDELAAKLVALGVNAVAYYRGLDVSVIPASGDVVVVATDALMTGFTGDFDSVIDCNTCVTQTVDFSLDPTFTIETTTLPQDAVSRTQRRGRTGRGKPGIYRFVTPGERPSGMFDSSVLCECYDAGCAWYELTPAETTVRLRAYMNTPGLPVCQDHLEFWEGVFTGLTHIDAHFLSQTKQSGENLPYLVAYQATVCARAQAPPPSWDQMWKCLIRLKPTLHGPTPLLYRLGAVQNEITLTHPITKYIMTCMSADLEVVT

Bcl-2-like protein 10 = target: T2, Bcl-2-like protein 10 (Homo sapiens, UniProt Q9HD36); assay: Concentration-response of Bcl-B inhibitors by biochemical FP with TR3 (AID 1243); type: functional
T2 sequence (Q9HD36 whole entry): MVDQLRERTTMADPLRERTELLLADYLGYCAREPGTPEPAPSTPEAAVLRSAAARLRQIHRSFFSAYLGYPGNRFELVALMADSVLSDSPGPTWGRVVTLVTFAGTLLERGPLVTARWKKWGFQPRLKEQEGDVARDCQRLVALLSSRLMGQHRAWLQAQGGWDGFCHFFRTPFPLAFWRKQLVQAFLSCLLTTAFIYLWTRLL

[5] = antiviral protection against BTV-induced cell death – arbovirus, BSR cells, confirmation (AID 1250); type: functional;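 also: protection from viral cytopathic effect measured as cell viability by ATP luminescence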
[6] = NIH3T3 cell viability loss – ATP luminescence, mouse fibroblasts, counter-screen, dose response (AID 2010); type: functional, cell-based;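 also: cells exposed to compound for about 90 hours before reading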
[7] = Trypanosoma cruzi growth suppression in host cells – NIH3T3 host cells, beta-gal luminescence, confirmation (AID 2044); type: functional, cell-based;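 also: intracellular parasites grown in NIH/3T3 mouse fibroblasts as host cells; luminescent beta-galactosidase reporter signal from transgenic T. cruzi replicating inside host cells; inhibitors lower the luminescence signal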
[8] = Luminescence Cell-Based/Microorganism Confirmation at Dose of Inhibitors of Trypanosoma cruzi Infection. [Related pubchem assays: 1885, 1968 ]; type: functional
[9] = target: T3, Short transient receptor potential channel 4 (Mus musculus, UniProt Q9QUQ5); assay: block of DAMGO-driven TRPC4 calcium entry – cell-based, HEK293 TRPC4/mu-opioid, Fluo-4 calcium, dose response (AID 434942); type: functional;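 also: potency of inhibitors blocking the TRPC4 calcium response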
T3 sequence (Q9QUQ5 whole entry): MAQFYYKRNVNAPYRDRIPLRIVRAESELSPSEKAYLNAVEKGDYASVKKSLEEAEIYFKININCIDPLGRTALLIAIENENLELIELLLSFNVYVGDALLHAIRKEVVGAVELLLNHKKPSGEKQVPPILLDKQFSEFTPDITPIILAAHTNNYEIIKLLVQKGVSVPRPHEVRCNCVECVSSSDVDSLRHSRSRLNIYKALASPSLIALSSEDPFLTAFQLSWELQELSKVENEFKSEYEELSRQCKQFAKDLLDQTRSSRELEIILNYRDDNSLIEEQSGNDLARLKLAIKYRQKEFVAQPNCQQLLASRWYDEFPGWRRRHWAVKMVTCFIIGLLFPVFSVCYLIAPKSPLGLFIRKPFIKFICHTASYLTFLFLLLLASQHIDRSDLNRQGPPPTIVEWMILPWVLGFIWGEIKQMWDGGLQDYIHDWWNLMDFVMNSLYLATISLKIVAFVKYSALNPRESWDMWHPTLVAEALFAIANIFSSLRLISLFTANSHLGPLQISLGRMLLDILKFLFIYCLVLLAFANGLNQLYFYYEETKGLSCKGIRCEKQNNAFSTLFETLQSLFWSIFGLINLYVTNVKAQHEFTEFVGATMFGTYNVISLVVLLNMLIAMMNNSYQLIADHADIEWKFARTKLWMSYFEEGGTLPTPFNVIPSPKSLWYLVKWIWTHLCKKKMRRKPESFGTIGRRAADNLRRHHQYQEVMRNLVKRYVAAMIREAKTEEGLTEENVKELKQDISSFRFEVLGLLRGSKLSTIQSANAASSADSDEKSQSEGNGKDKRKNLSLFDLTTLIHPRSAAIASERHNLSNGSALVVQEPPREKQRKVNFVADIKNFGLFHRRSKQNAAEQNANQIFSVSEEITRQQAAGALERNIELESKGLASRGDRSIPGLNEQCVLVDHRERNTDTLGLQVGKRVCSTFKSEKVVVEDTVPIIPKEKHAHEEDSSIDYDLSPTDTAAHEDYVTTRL

[10] = Luminescence Cell-Based Secondary HTS screen to identify cytotoxic compounds of NIH3T3 cells. [Related pubchem assays: 1885, 1968 ]; type: functional
[11] = M. tuberculosis H37Rv growth inhibitors, H37Rv strain (AID 1626); type: functional
Cytochrome P450 2C9 = Cytochrome P450 2C9 (Homo sapiens, UniProt P11712)
Chain of Cytochrome P450 2C9 (P11712 whole entry): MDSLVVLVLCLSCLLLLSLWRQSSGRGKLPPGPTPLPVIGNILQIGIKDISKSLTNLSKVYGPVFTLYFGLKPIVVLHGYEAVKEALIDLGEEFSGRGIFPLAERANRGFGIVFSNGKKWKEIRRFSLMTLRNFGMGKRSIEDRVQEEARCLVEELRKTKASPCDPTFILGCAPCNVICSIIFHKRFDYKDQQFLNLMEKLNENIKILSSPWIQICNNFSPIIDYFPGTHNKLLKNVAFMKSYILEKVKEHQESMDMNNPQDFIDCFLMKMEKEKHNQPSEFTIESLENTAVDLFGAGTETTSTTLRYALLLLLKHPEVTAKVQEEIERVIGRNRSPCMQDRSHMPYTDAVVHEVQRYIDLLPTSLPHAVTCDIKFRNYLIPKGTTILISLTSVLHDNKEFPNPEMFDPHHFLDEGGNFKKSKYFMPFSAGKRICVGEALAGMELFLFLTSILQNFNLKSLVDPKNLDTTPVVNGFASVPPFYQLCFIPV

Aspartyl aminopeptidase = target: T4, Aspartyl aminopeptidase (Plasmodium falciparum 3D7, UniProt Q8I2J3); assay: Counterscreen for inhibitors of M1 and M17 aminopeptidases: QFRET-based biochemical high throughput dose response assay for inhibitors of the Plasmodium falciparum M18 Aspartyl Aminopeptidase (PFM18AAP). [Related PubChem assays: 1619 (Screening assay (M17LAP inhibitors).), 1445 (Screening assay (M1AAP inhibitors).)]
T4 sequence (Q8I2J3 whole entry): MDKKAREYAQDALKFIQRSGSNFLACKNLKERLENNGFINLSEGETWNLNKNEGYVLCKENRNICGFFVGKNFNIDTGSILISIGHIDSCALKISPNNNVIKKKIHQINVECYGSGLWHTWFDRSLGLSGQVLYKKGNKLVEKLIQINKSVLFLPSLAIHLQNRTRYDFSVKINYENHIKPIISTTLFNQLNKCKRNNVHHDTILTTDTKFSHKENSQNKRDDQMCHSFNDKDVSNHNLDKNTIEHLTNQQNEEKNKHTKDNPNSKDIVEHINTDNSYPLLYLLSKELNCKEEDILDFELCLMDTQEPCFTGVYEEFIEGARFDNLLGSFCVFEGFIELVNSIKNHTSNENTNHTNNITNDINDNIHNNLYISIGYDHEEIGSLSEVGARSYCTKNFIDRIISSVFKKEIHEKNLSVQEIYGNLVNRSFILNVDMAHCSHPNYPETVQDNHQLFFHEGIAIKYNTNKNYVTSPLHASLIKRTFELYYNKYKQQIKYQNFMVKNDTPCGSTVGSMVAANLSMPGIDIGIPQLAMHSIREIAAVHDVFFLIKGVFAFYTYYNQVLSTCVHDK

Leucine aminopeptidase = target: T5, Leucine aminopeptidase (Plasmodium falciparum 3D7, UniProt Q8IL11); assay: P. falciparum M17LAP inhibitors, primary screen, biochemical, fluorogenic H-Leu-NHMec substrate, 1536-well (AID 1619); type: functional
T5 sequence (Q8IL11 whole entry): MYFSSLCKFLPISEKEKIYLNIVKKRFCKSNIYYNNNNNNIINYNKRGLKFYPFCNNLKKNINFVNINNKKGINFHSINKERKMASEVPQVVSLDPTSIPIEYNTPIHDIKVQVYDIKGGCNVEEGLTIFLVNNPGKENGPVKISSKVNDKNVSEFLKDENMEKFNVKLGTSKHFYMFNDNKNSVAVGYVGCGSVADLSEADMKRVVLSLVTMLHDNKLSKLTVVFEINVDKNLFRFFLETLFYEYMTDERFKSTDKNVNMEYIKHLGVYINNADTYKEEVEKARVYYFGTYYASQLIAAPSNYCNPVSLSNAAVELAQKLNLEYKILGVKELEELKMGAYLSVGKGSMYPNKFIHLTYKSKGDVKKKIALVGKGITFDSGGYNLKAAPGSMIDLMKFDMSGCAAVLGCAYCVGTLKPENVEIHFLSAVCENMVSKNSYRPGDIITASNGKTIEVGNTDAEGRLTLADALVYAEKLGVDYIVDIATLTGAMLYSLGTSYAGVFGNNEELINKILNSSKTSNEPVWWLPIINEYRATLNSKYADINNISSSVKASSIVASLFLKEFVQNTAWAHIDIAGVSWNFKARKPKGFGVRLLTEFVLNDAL

Cytochrome P450 2C19 = Cytochrome P450 2C19 (Homo sapiens, UniProt P33261); assay: Cytochrome panel assay with activity outcomes. Panel member name: p450-cyp2c19 Compounds with AC50 equal or less than 10 uM are considered active; type: functional; conditions: read-out: AC50
Chain of Cytochrome P450 2C19 (P33261 whole entry): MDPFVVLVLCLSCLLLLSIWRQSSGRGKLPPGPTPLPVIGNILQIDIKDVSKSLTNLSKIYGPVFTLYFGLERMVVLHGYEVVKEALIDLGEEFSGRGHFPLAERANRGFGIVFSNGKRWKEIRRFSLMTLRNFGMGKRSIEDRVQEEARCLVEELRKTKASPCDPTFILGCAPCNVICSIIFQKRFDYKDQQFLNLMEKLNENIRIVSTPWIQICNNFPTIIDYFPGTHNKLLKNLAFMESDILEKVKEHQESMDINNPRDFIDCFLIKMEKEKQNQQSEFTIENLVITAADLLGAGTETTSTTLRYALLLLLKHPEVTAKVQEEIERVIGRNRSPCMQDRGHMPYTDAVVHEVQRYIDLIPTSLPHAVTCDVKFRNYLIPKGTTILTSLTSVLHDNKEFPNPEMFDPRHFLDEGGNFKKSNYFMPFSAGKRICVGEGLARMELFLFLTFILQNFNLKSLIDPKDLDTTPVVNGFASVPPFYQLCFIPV

Procathepsin L = Procathepsin L (Homo sapiens, UniProt P07711); assay: CTSL1 protease inhibition – biochemical, QFRET, 1536-well, counter-screen for M1/M17 aminopeptidase inhibitor project, dose response (AID 2214)
Chain of Procathepsin L (P07711 whole entry): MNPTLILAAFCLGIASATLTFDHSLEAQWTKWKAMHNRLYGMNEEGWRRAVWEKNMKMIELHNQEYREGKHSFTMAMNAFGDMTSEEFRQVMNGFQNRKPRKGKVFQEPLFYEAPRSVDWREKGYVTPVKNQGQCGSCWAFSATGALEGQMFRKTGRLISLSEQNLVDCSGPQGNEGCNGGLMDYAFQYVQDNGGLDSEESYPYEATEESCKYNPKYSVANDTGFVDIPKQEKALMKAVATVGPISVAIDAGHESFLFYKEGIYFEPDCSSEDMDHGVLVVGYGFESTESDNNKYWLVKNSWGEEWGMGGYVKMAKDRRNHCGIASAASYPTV

[12] = target: T6, Mannose-6-phosphate isomerase (Homo sapiens, UniProt P34949); assay: MPI enzyme activity inhibition – biochemical, fluorescence intensity, coupled assay, primary screen (AID 1209)
T6 sequence (P34949 whole entry): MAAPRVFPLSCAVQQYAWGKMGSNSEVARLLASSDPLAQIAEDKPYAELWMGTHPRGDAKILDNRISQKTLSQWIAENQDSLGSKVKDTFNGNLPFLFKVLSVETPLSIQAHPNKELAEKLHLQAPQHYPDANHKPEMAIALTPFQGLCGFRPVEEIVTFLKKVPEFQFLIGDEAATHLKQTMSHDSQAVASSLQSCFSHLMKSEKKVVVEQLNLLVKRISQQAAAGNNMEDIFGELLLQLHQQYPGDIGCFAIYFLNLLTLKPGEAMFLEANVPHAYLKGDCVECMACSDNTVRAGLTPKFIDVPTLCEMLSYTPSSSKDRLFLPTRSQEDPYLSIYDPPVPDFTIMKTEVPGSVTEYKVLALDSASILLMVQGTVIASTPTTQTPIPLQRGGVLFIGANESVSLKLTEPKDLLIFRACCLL

Phosphomannomutase 2 = Phosphomannomutase 2 (Homo sapiens, UniProt O15305); assay: Counter screen SAR assay for PMM2 inhibitors via a fluorescence intensity assay. [Related pubchem assays (depositor defined):AID1545, AID1574]
Chain of Phosphomannomutase 2 (O15305 whole entry): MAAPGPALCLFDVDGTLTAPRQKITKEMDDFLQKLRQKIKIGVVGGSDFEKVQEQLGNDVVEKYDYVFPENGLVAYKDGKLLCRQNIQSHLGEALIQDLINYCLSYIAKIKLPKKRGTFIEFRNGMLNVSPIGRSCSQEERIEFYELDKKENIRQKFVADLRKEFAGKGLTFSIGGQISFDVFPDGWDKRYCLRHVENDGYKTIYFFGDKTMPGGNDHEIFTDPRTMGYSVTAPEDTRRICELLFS

[13] = target: T1, Mitochondrial peptide methionine sulfoxide reductase; assay: Absorbance-based biochemical high throughput dose response assay for activators of Methionine sulfoxide reductase A (MsrA).; type: functional
[14] = target: T6, Mannose-6-phosphate isomerase; assay: phosphomannose isomerase inhibition – biochemical, fluorescence intensity, confirmation (AID 1535)
[15] = A High Throughput Confirmatory Assay used to Identify Novel Compounds that Inhibit Mycobacterium Tuberculosis in the absence of Glycerol.; type: functional
Melanocortin receptor 4 = Melanocortin receptor 4 (Homo sapiens, UniProt P32245); assay: inhibitors of MC4R cAMP signaling – cell-based, TR-FRET, biased antagonists, dose response (AID 602298); type: functional;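 also: antagonist potency against agonist-stimulated cAMP production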
Chain of Melanocortin receptor 4 (P32245 whole entry): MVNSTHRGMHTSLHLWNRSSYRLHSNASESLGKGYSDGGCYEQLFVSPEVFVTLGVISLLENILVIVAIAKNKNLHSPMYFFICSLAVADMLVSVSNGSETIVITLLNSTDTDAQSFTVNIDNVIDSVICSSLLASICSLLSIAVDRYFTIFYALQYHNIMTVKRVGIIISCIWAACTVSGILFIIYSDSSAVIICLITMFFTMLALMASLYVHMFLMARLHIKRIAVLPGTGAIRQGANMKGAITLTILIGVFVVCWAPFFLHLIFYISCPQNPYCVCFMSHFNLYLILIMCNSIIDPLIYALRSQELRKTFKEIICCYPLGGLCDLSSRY

[16] = cAMP pathway inhibition in counterscreen cell line – TR-FRET cAMP detection, counter-screen for MC4R biased antagonist project, dose response (AID 602305); type: functional, cell-based;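 also: U2OS cells stimulated with forskolin near its EC80 as the cAMP inducer; potency is for inhibition of forskolin-stimulated cAMP signaling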

COc1cccc(C2=CC(c3cccc(OC)c3OC)n3nnnc3N2)c1 (stereo not drawn)
EC50 (H4): 13.1 µM (active) | EC50 [1]: 26.1 µM (active) | IC50 [2]: 155 µM (inactive) | EC50 [3]: 17 µM (active) | EC50 (Wee1-like protein kinase): > 49.7 µM (not active) | EC50 [4]: > 49.7 µM (not active)

COc1ccc(OC)c(C2CC(=O)N3CN(c4ccccc4F)CSC3=C2C#N)c1 (stereo not drawn)
IC50 (NS3): 6.77 µM (active)

O=C(O)C1Nc2c(C(=O)N3CCCC3)cccc2C2C=CCC12 (stereo not drawn)
EC50 (Bcl-2-like protein 10): 4.95 µM (active)

CC(C)CCOc1ccc(/C=C2\CCn3c2nc2cc(C(=O)O)ccc2c3=O)cc1
IC50 [5]: 32.2 µM (active)

CC(C)Oc1cccc(C(=O)C2CCCN(Cc3cnn(C(C)C)c3)C2)c1 (stereo not drawn)
EC50 [6]: > 60 µM (not active) | EC50 [7]: < 100 nM (active) | EC50 [8]: 68 nM (active) | EC50 [9]: 2.11 µM (active) | EC50 [10]: > 195 µM (not active) | EC50 (cells): 39 nM (active)

Nc1cc(O)nc(SCC(=O)Nc2ccccc2-c2ccccc2)n1
IC50 [11]: > 100 µM (active)

COc1ccc(NC(=O)CSC2=NC(=O)CC(C)=N2)cc1
AC50 (Cytochrome P450 2C9): 25.1 µM (inconclusive) | IC50 (Aspartyl aminopeptidase): > 73.5 µM (not active) | IC50 (Leucine aminopeptidase): 3.09 µM (active) | AC50 (Cytochrome P450 2C19): 15.8 µM (inconclusive) | IC50 (Procathepsin L): > 59.6 µM (not active)

Sc1n[nH]c(-c2cccc(Br)c2)n1
IC50 [12]: 14.5 µM (active) | IC50 (Phosphomannomutase 2): > 100 µM (inactive) | EC50 [13]: > 104 µM (inactive) | IC50 [14]: 6.15 µM (active)

CN1CCN(C(=O)/C=C/c2cn(-c3ccccc3)nc2-c2ccc3c(c2)OCCO3)CC1
IC50 [15]: > 100 µM (active) | IC50 (Melanocortin receptor 4): > 64.6 µM (inactive) | IC50 [16]: > 64.6 µM (inactive)
